In patent US12662484B2, “Substituted piperidines as bruton's tyrosine kinase inhibitors” (Shenzhen TargetRx, Inc., priority 2016, dated 2026):
pIC50: −log10 of the molar value.

What was measured:
[1] = biological target: T1, Phospho-BTK (Y223) in NIH/3T3 BTK WT cells (Homo sapiens, UniProt Q06187); test: Phospho-BTK (Y223) assay, NIH/3T3 BTK WT cells; format: cell-based; settings: phospho-BTK Y223, NIH/3T3 BTK WT cells; read-out: NIH/3T3 BTK-WT pBTK IC50
T1 construct: expressed in transfected cells; host or cells: NIH/3T3
T1 sequence (Q06187 whole entry): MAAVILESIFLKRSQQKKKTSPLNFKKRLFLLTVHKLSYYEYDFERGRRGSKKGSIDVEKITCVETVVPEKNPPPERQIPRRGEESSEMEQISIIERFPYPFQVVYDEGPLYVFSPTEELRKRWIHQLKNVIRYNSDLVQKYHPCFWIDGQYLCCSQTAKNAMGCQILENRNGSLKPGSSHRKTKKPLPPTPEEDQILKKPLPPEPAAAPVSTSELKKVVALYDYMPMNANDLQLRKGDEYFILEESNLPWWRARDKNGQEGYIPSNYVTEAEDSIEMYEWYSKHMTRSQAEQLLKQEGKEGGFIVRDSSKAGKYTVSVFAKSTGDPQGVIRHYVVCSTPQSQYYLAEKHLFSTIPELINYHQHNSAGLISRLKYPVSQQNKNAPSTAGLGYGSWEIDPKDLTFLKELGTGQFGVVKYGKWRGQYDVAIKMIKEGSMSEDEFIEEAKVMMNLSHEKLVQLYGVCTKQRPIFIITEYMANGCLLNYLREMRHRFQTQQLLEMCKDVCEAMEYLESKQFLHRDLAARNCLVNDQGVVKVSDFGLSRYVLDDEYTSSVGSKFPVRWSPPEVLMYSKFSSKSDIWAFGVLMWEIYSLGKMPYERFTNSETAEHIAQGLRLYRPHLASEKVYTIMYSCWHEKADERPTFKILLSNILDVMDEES
Method: (§1) (5) Phospho-BTK (Y223) Assay The Adherent Cells Protocol: Day 1: • 1. […] The plate was incubated overnight at 37° C., 5% CO2. Day 2: • 1. 3-fold compound dilution was prepared, and dispensed 50 μL into 100 μL cell culture. 0.5% DMSO was used as positive control of the cell growth. • 2. The plate was incubated at 37° C., 5% CO2 for 0.5 h. • 3. 50 μL of 1 mM Na3VO4 was added, and incubated at 37° C., 5% CO2 for 2 h. • 4. During the incubation, the following reagents were prepared: 1× supplemented lysis buffer: 3 vol ddH2O+1 vol 4× Lysis buffer+100× Blocking reagent. p-BTK (Y223) cryptate-antibody and p-BTK (Y223) d2-antibody working solution: 1 volume of the stock solution of each antibody frozen aliquot (stored at)−20° was added into 19 volumes of the detection buffer (stored at) 4°. • 5. At the end of the incubation, the plate was flicked to remove the medium, then added 50 μL of 1× supplemented lysis buffer, and incubated at RT for 30 min, with 500 rpm shaking. • 6. The lysate was homogenized by pipetting up and down, and transferred 16 μL to a 384-well microplate. 1× supplemented lysis buffer was used as blank control. • 7. 4 μL of premixed antibody working solutions (cryptate Ab:d2 Ab=1:1) was added. The plate was covered with a plate sealer. • 8. Incubated at RT overnight. […] Data Analysis:
(§2) The IC50 value was calculated with GraphPad Prism 7.0.
(§3) The IC50 of the compounds for phosphorylating BTK Y223 was fit using the following formula.

BTK C481S = biological target: T2, BTK C481S (Homo sapiens, UniProt Q06187, C481S); test: BTK C481S kinase inhibition test (HTRF); format: biochemical
T2 construct: purchased Carna 08-547
T2 sequence (Q06187 whole entry C481S): as the sequence (Q06187 whole entry) above, with C481S counted along it
Method: (§4) Kinase Assay: Stock solution of the test compounds were prepared. The final concentration of DMSO in the kinase detection system was not exceed 1%. All of the procedures were carried out on ice, and the total volume of the reaction is 10 μL. Compound (4 μL), substrate and ATP (4 μL), and kinase (2 μL) were added to the wells of a 384-well plate in sequence, shaked for 30 sec, and reacted at room temperature for a proper time. Then, the resection was stopped by adding the detection reagents. The reaction mixture was reacted at room temperature for 1 hr, and detected with Microplate Reader.

[2] = biological target: T3, Phospho-BTK (Y223) in NIH/3T3 BTK C481S cells (Homo sapiens, UniProt Q06187, C481S); test: Phospho-BTK (Y223) assay, NIH/3T3 BTK C481S cells; format: cell-based; settings: phospho-BTK Y223, NIH/3T3 BTK C481S cells; read-out: NIH/3T3 BTK-C481S pBTK IC50
T3 construct: expressed in transfected cells; host or cells: NIH/3T3
T3 sequence (Q06187 whole entry C481S): as the sequence (Q06187 whole entry) above, with C481S counted along it
Method: as §1, §2, §3

ITK = biological target: T4, ITK (Homo sapiens, UniProt Q08881); test: ITK kinase inhibition test (HTRF); format: biochemical
T4 construct: purchased Carna 08-181
T4 sequence (Q08881 1-620): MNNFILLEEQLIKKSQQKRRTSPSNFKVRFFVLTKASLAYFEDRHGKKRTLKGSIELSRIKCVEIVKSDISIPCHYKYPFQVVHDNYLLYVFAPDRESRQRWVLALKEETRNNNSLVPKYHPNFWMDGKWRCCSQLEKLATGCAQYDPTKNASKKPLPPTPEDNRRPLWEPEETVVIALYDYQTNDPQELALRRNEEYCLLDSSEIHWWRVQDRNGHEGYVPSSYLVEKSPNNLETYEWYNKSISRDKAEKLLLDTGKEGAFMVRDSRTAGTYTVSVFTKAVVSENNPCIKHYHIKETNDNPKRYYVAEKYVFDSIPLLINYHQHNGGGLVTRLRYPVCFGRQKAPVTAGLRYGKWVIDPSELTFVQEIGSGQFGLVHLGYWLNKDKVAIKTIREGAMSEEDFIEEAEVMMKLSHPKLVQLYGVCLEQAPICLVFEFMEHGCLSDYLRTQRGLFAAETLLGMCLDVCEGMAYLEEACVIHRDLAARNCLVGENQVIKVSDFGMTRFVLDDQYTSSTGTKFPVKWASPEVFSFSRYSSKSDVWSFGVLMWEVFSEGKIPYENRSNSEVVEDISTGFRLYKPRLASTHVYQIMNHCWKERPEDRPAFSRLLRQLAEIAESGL
Method: (4) BTK C481S and ITK Kinase Inhibition Test
Reagents and materials: BTK C481S (Carna, catalog number: 08-547), ITK (Carna, catalog number: 08-181). […].
as §4, with “Reader. […].” for “Reader.”

[3] = Pharmacokinetics and brain distribution study after a single oral administration
From the text: (6) Pharmacokinetics and Brain Distribution Study in Male Sprague Dawley Rats Following a Single Oral Administration
This study is designed to evaluate the pharmacokinetics and brain distribution of compounds disclosed herein in male Sprague Dawley Rat following a single Oral administration.
The animals were fasted overnight from 18:00 p.m. before the dosing day, and fed at 4 hr post-dose. All animals were free access to water during the study. Blood, CSF and brain were collected after each occasion of dosing at 0.5, 1, 2, and 8 hr. Blood samples (˜0.25 mL per time-point) were collected via jugular venous sinus puncture and placed in K2EDTA-containing tubes. Immediately following blood collection, the samples were inverted several times and held on wet ice before centrifugation. All the samples were centrifuged within 30 min of collection under refrigeration (set to maintain 4° C. for 5 min at 6000 rpm) to obtain plasma. The CSF samples (about 100 μL) were collected into tubes via puncture of the cisterna magna. The brain samples were rinsed with saline, drained with filter paper and removed with blood vessels, then weighted and recorded. 5-fold of the homogenate solvent (30% MeOH/70% 10 mM PBS) were used for the homogenization. All the samples were stored at −80° C., or lower until being analyzed with LC-MS/MS. Concentrations of the compounds disclosed herein in each matrix were used for PK analysis by non-compartmental method using WinNonlin.

[4] = male, Sprague-Dawley, rat, in vivo
BTK = biological target: T5, BTK (Homo sapiens, UniProt Q06187); test: Kinase inhibition test (HTRF), BTK; format: biochemical; settings: 1 nM BTK, 20 μM ATP
T5 construct: purchased Invitrogen PR5442A
T5 sequence (Q06187 whole entry): as the sequence (Q06187 whole entry) above
Method: (1) Kinase Inhibition Test
• 1) Compound dilution: The test compounds were dissolved in DMSO to make a 10 mM stock solution.

in vivo = settings: male, Sprague-Dawley, rat
[5] = male SD rat, 10 mg/kg oral, CSF
[6] = male SD rat, 10 mg/kg oral, brain
[7] = male SD rat, 10 mg/kg oral, plasma
[8] = male, Sprague Dawley, rat, CSF, po, 10 mg/kg
[9] = male, Sprague Dawley, rat, brain, po, 10 mg/kg
[10] = male, Sprague Dawley, rat, plasma, po, 10 mg/kg

Row | pIC50 [1] | pIC50 (BTK C481S) | pIC50 [2] | pIC50 (ITK) | Compound | Cmax, CSF [3, 5] | Cmax, Brain [3, 6] | AUC(0-t) [3, 8] | AUC(0-inf) [3, 10] | AUC(0-t) [3, 10] | MRT inf [3, 10] | other results
1 | 8.18 | 7.97 | 6.30 | 6.86 | C=CC(=O)N1CCC[C@@H](c2cn(-c3ccc(Oc4ccccc4)cc3)c3c(N)ncnc23)C1 [Example 3, (S)-1-(3-(4-amino-5-(4-phenoxyphenyl)-5H-pyrrolo[3,2-d]pyrimidin-7-yl)piperidin-1-yl)prop-2-en-1-one] |  |  |  |  |  |  | 
2 | 8.26 | 8.22 | 6.18 | 6.21 | C=CC(=O)N1CCC[C@@H](c2nn(-c3ccc(Oc4ccccc4)cc3)c3c(N)ncnc23)C1 [Example 5, (R)-1-(3-(7-amino-1-(4-phenoxyphenyl)-1H-pyrazolo[4,3-d]pyrimidin-3-yl)piperidin-1-yl)prop-2-en-1-one] |  |  |  |  |  |  | 
3 | 7.73 | 7.79 | < 6.00 | 5.36 | C=CC(=O)N1CCC[C@H](c2nn(-c3ccc(Oc4ccccc4)cc3)c3c(N)ncnc23)C1 [Example 6, (S)-1-(3-(7-amino-1-(4-phenoxyphenyl)-1H-pyrazolo[4,3-d]pyrimidin-3-yl)piperidin-1-yl)prop-2-en-1-one] |  |  |  |  |  |  | 
4 | 8.13 | 8.61 | 6.79 | 7.66 | C=CC(=O)N1CCC[C@@H](c2nc(-c3ccc(Oc4ccccc4)cc3)c3c(N)nccn23)C1 [Example 7, (R)-1-(3-(8-amino-1-(4-phenoxyphenyl)imidazo[1,5-a]pyrazin-3-yl)piperidin-1-yl)prop-2-en-1-one] | 0.478 ng/mL | 18 ng/mL | 0.119 ng·h/mL | 285 ng·h/mL | 275 ng·h/mL | 122 min | Cl_pred, Plasma [3, 7]: 586; Vz_pred, Plasma [3, 7]: 85.5 L/kg; Tmax [3, 8]: 30 min; AUC(0-t) [3, 9]: 16.4 ng·h/mL; Tmax [3, 9]: 30 min; Cmax [3, 10]: 117 ng/mL; Tmax [3, 10]: 30 min; half-life [3, 10]: 101 min
5 | 8.31 | 8.41 | 6.54 | 6.76 | C=CC(=O)N1CCC[C@@H](c2nc(-c3ccc(Oc4ccccc4)cc3)c3c(N)ncnn23)C1 [Example 8, (R)-1-(3-(4-amino-5-(4-phenoxyphenyl)imidazo[5,1-f][1,2,4]triazin-7-yl)piperidin-1-yl)prop-2-en-1-one] |  |  |  |  |  |  | F [4]: 16.0%; pIC50 (BTK): > 9.00; AUC(0-t) (in vivo; iv, 0.5 mg/kg): 255 ng·h/mL; Cmax (in vivo; iv, 0.5 mg/kg): 1120 ng/mL; AUC(0-t) (in vivo; po, 10 mg/kg): 820 ng·h/mL; Cmax (in vivo; po, 10 mg/kg): 348 ng/mL; Tmax (in vivo; po, 10 mg/kg): 20 min
6 |  |  |  |  | C=CC(=O)N1CCC[C@@H](n2nc(-c3ccc(Oc4ccccc4)cc3)c3c(N)ncnc32)C1 [Ibrutinib, reference compound] | 0.35 ng/mL | 25.4 ng/mL | 0.0875 ng·h/mL | 666 ng·h/mL | 626 ng·h/mL | 145 min | 
